Results reported in paper PMC3316526, “Modulation of γ-Secretase Activity by Multiple Enzyme-Substrate Interactions: Implications in Pathogenesis of Alzheimer's Disease” (PLoS ONE, 2012).

Columns and labels:
[1] = system: γ-secretase; assay: Michaelis-Menten profiles for AICD, Aβ 1–40 and Aβ 1–42 in presence of DAPT; assay type: biochemical; conditions: enzyme approaching saturation with C99 substrate; DAPT 70-200 nM
Experimental: Figure 3 Michaelis-Menten profiles for AICD, Aβ 1–40 and Aβ 1–42 in presence of DAPT. CHAPSO enriched γ-secretase membranes were used to measure Michaelis-Menten profiles for total AICD production in presence of 0 nM (•), 70 nM (+) and 150 nM (O) of DAPT. Michaelis-Menten profiles for Aβ 1–40 and Aβ 1–42 production were measured in presence of 0 nM (•), 100 nM (+) and 200 nM (O) of DAPT. All profiles have been analyzed using nonlinear regression and the eqn. 4 (methods). The gel strips show different concentrations of the C99 substrate and the corresponding AICD products. […] AICD was measured using antiflag M2 antibodies (as shown in the gel strip). Aβ 1–40, and Aβ 1–42 were measured using AlphaScreen® as described in methods section.
γ-Secretase assays using CHAPSO enriched membranes were performed essentially as earlier described, [37], [48], [89]. […] This incubation can increase the measured activity by up to 70% since it can accommodate slow reassembly of γ-secretase components that is induced by the transition from 1% CHAPSO to 0.25% CHAPSO [90]. […]
AICD assays using western-blots with anti-flag αM2 monoclonal antibody, or 125-I labelled C99 autoradiography were performed as earlier described, [37]. […] Following the washes with TBS +0.1% Tween 20, the membranes were subjected to 25 nM GAMIR (MolecularProbes), washed, and read using fluorescence at […]. […]

[2] = molecular target: T1, γ-secretase carrying WT presenilin 1 (Homo sapiens, UniProt P49768); assay: Inhibition of total AICD production, CHAPSO enriched γ-secretase membranes, WT presenilin 1; assay type: biochemical; conditions: best fit ± standard error, eqn. 3; for IC50: total AICD production, western blot
T1 construct: expressed in transfected cells; host or cells: MEF double knockout for endogenous presenilin, transduced; CHAPSO-solubilised microsomal membranes
Experimental: (§1) Figure 9 Inhibition of WT presenilin 1 and FAD mutants by DAPT and L-685,458. CHAPSO enriched γ-secretase membranes carrying WT presenilin 1 or FAD mutations ΔE9 and G384A have been prepared and analyzed in parallel with all conditions identical. The dose response curves for DAPT [71] and L-685,458 [15] were measured by following total AICD production using western-blots with αM2 antiflag antibody as shown in Fig. 3. The results were analyzed using nonlinear regression and the equation 3 (methods).
(§2) MEF cells, or MEF double knockout for endogenous presenilin transduced with human WT, dE9 and G384A presenilin 1 [85], were grown to confluence, scraped, and collected in pellets by centrifugation at 1000×g for 5 min. The cell pellets were re-suspended in 20 mM Pipes pH = 7.0, 140 mM KCl, 0.25 M sucrose, 5 mM EGTA, plus 1X Roche protease inhibitors cocktail, so that the total protein concentration was 10 mg/ml. Re-suspended cells were subjected to more than 20 passages in 8.010 mm cell-cracker. The resulting cell extract was subjected to 10 min centrifugation on 2000×g to remove large debris, and the fragmented membranes were collected as pellets after centrifugation for 1 hour at 100 000×g, and stored at −80°C.
(§3) γ-Secretase assays using CHAPSO enriched membranes were performed essentially as earlier described, [37], [48], [89]. Briefly, microsomal fractions (protein concentration 10 mg/ml) from different MEF cells were solubilized in 1% CHAPSO buffer (50 mM Pipes, pH 7.0, 0.25 M sucrose, 1 mM EGTA, 1×Complete protease inhibitor mixture (Roche)) and incubated on ice for 1 h. CHAPSO was always prepared as 1% w/v fresh from a powder stock that was less than 6 months old and kept at 4°C (freshness is crucial for high activity). Next, the membrane-solubilized protein fractions were obtained as supernatant by ultracentrifugation for 1 hour at 100,000×g. The prepared CHAPSO enriched membranes were diluted two fold with 50 mM Pipes pH = 7.0, 0.25 M sucrose, 1 mM EGTA, 0.1% phosphatidylcholine, and 0.0125% phosphatidylethanolamine, plus 1×Complete protease inhibitor mixture (Roche), and left on 37°C for two to three hours. This incubation can increase the measured activity by up to 70% since it can accommodate slow reassembly of γ-secretase components that is induced by the transition from 1% CHAPSO to 0.25% CHAPSO [90]. The reactions were started by adding C99 substrate in desired concentration, the added volume was adjusted so that: i) the final CHAPSO concentration was 0.25%; ii) and final concentration of membrane proteins was 0.25 mg/ml. Fresh C99 substrate that is used immediately after purification gives the best opportunity to observe described enzymatic features and the highest activity. […]

[3] = system: γ-secretase carrying presenilin 1 FAD mutation ΔE9; assay: Inhibition of total AICD production, CHAPSO enriched γ-secretase membranes, FAD mutant ΔE9; assay type: biochemical, human; conditions: for Hill's coef. / IC50: ΔE9 presenilin 1, best fit ± standard error, eqn. 3; for IC50: total AICD production, western blot; for decrease in inhibition potency relative to the WT: ΔE9 vs WT presenilin 1
Experimental: as §1, §2
(§4) γ-Secretase assays using CHAPSO enriched membranes were performed essentially as earlier described, [37], [48], [89]. Briefly, microsomal fractions (protein concentration 10 mg/ml) from different MEF cells were solubilized in 1% CHAPSO buffer (50 mM Pipes, pH 7.0, 0.25 M sucrose, 1 mM EGTA, 1×Complete protease inhibitor mixture (Roche)) and incubated on ice for 1 h. CHAPSO was always prepared as 1% w/v fresh from a powder stock that was less than 6 months old and kept at 4°C (freshness is crucial for high activity). Next, the membrane-solubilized protein fractions were obtained as supernatant by ultracentrifugation for 1 hour at 100,000×g. The prepared CHAPSO enriched membranes were diluted two fold with 50 mM Pipes pH = 7.0, 0.25 M sucrose, 1 mM EGTA, 0.1% phosphatidylcholine, and 0.0125% phosphatidylethanolamine, plus 1×Complete protease inhibitor mixture (Roche), and left on 37°C for two to three hours. This incubation can increase the measured activity by up to 70% since it can accommodate slow reassembly of γ-secretase components that is induced by the transition from 1% CHAPSO to 0.25% CHAPSO [90]. The reactions were started by adding C99 substrate in desired concentration, the added volume was adjusted so that: i) the final CHAPSO concentration was 0.25%; ii) and final concentration of membrane proteins was 0.25 mg/ml. Fresh C99 substrate that is used immediately after purification gives the best opportunity to observe described enzymatic features and the highest activity. The assay mix was prepared in low adhesion microcentrifuge tubes, the volume was usually 25 µL. To increase sensitivity in early data points detection, and at low enzyme saturation, the assay volume was increased up to 400 µL, and the resulting reaction products were concentrated by immunoprecipitation before the gels were loaded. The reaction mix was incubated at 37°C, the time was optimized for each experiment. The AICD production remains linear for 6 hours at saturating substrate. The reaction specificity was confirmed by running identical parallel reactions that have been saturated with inhibitors specific for γ-secretase; 10 µM LY-411,575 and 10 µM DAPT [3], [4].
(§5) AICD assays using western-blots with anti-flag αM2 monoclonal antibody, or 125-I labelled C99 autoradiography were performed as earlier described, [37]. To keep the C99 bands visible on gels in difference to the previous studies the reaction aliquots were not subjected to methanol /chloroform extraction. Briefly, the samples were separated on Nu-PAGE 12% Bis/Tris/MES/SDS-page gels (Invitrogen) at 150 V for 55 min. For 125-I-C99 assays the gels were dried and exposed for 1–2 hours to europium intensifying screens for autoradiography. […]

[4] = molecular target: T2, γ-secretase carrying presenilin 1 FAD mutation G384A (Homo sapiens, UniProt P49768, G384A); assay: Inhibition of total AICD production, CHAPSO enriched γ-secretase membranes, FAD mutant G384A; assay type: biochemical; conditions: for decrease in inhibition potency relative to the WT: G384A vs WT presenilin 1
T2 construct: expressed in transfected cells; host or cells: MEF double knockout for endogenous presenilin, transduced; CHAPSO-solubilised microsomal membranes
Experimental: as §1, §2
as §4, with “[4]. […]” for “[4].”

[5] = system: γ-secretase; assay: γ-Secretase reaction premixed with synthetic Aβ peptides (AICD production, urea gels of Aβ products); assay type: biochemical; conditions: for effect on the rate of AICD production: extremely high concentrations of synthetic peptide, half-saturating C99 (0.45 µM); for effect on relative difference between Aβ 1–40, Aβ 1–42 and the longer Aβ products: reaction premixed with 10 nM synthetic peptide, urea gels, [C99] = 0.45 µM, 4 hours
Experimental: Figure 7 γ-Secretase is not affected by Aβ peptides present in free solution. (A) The lanes labeled as “free reaction” represent Aβ products after 4 hours of routine γ-secretase reaction at half saturating C99 substrate ([C99] = 0.45 µM). The lanes labeled as “+10 nM Aβ 1–42” and “+10 nM Aβ 1–40” represent “free reaction” premixed with synthetic Aβ 1–42 or Aβ 1–40 in a concentration equivalent that corresponds to 4 hours of free reaction. The lanes labeled “+21F12” and “+2G6” represent “free reaction” that was premixed with antibodies specific for Aβ42 or Aβ40 respectively. Both 2G6 and 21F12 antibodies bind the matching Aβ peptides very efficiently as indicated by a complete removal of the corresponding Aβ bands in the reactions with protein G beads (samples labeled as “21F12 and prot. G” and “2G6 and prot. G”). The lane “Aβ std 1-x” represents synthetic peptides as mobility standards. (B) AICD production was measured at half-saturating C99 substrate (0.45 µM) in assays that were premixed with increasing concentrations of synthetic Aβ 1–38, Aβ 1–40, Aβ 1–42, or Aβ 1–44.
as §4, §5

[6] = molecular target: γ-secretase (CHAPSO enriched γ-secretase membranes) (not stated (endogenous mouse in MEF, or human presenilin 1 transduced) | mouse (endogenous in MEF)) (UniProt P49768)
[7] = molecular target: γ-secretase; conditions: quoted without reference; read-out: IC50 in cell-based assays; cited from earlier work
[8] = system: γ-secretase; assay: Titration of γ-secretase activity in CHAPSO enriched membranes with LY-411,575; assay type: biochemical; conditions: total protein 0.25 mg/ml and 0.09 mg/ml
Experimental: as §3, with “mg/ml.” for “mg/ml. Fresh C99 substrate that is used immediately after purification gives the best opportunity to observe described enzymatic features and the highest activity.”

[9] = system: patients; design: method as in PMID 21222550; conditions: Phase III clinical trials; cited from earlier work
[10] = molecular target: γ-secretase (CHAPSO enriched γ-secretase membranes) (not stated (endogenous mouse in MEF, or human presenilin 1 transduced) | mouse (endogenous in MEF)) (UniProt P49768); remark: listed apart in the source
[11] = molecular target: APP C99-3×FLAG (human); assay: AlphaScreen or HTRF; increasing fresh C99 incubated 3 h with 10 nM 3D6 antibody coupled to both donor and acceptor beads; signal only if C99 dimerization/oligomerization brings two epitopes together; apparent Kd from a quadratic equation specific for dimerization (dimer to monomers)
[12] = G384A presenilin 1, best fit ± standard error, eqn. 3

In the case of C[C@H](NC(=O)Cc1cc(F)cc(F)c1)C(=O)N[C@H](C(=O)OC(C)(C)C)c1ccccc1 [DAPT, N-[N-(3,5-difluorophenacetyl)-L-alanyl]-S-phenylglycine t-butyl ester], the “mode of inhibition versus C99 substrate” value [1] is reported as “noncompetitive inhibitor”, the “Hill's coef.” value [2] is reported as 0.7±0.2 and the IC50 [2] is reported as 390 ± 179 nM. The “Hill's coef.” value [3] was 1.21±0.07, the IC50 [3] was 734 ± 254 nM and the “decrease in inhibition potency relative to the WT” value [3] was “approximately twofold”. For the same compound, the “Hill's coef.” value [4, 12] was 0.54±0.25 and the “decrease in inhibition potency relative to the WT” value [4] was “about 1000 fold”.

For “Aβ 1–42: synthetic Aβ 1-x standard prepared by solid phase synthesis”, the “effect on the rate of AICD production” value [5] was “do not affect” and the “effect on relative difference between Aβ 1–40, Aβ 1–42 and the longer Aβ products” value [5] was “does not affect”.

In the case of “NotchΔE substrate (NotchΔE-3xFLAG) (domain or fragment)”, the AICD production from 125-I labeled C99 at half-saturating C99 (0.44-0.45 µM) with increasing NotchΔE substrate: activation, then inhibition only at higher NotchΔE concentrations [6] is reported as 85%.

With CC(C)C[C@H](NC(=O)[C@H](Cc1ccccc1)C[C@@H](O)[C@H](Cc1ccccc1)NC(=O)OC(C)(C)C)C(=O)N[C@@H](Cc1ccccc1)C(N)=O [L-685,458, {1S-benzyl-4R-[1S-carbamoyl-2-phenylethylcarbamoyl-1S-3-methylbutylcarbamoyl]-2R-hydroxy-5-phenylpentyl} carbamic acid tert-butyl ester] the “Hill's coef.” value [2] was 1.3±0.1, the IC50 [2] was 32 ± 4 nM and the “Hill's coef.” value [3] was 0.98± 0.08. For the same compound, the IC50 [3] was 707 ± 80 nM, the “decrease in inhibition potency relative to the WT” value [3] was 10–20 fold and the “Hill's coef.” value [4, 12] was 1±0.13. For the same compound, the IC50 ([4]; G384A presenilin 1, total AICD production, western blot, best fit ± standard error, eqn. 3) was 398 ± 51 nM and the “decrease in inhibition potency relative to the WT” value [4] was 10–20 fold.

In the case of C[C@H](NC(=O)[C@@H](O)c1cc(F)cc(F)c1)C(=O)N[C@@H]1C(=O)N(C)c2ccccc2-c2ccccc21 [LY-411,575], the IC50 [7] is given as ~0.1 nM and the “concentration that completely abolishes γ-secretase activity” value [8] is given as 1 to 2 nM.

In the case of CC(C)[C@H](O)C(=O)N[C@@H](C)C(=O)N[C@@H]1C(=O)N(C)CCc2ccccc21 [semagacestat], the “effect on cognitive decline in patients” value [9] is given as “can accelerate the cognitive decline”.

For “Aβ 1–40: synthetic Aβ 1-x standard prepared by solid phase synthesis”, the “effect on the rate of AICD production” value [5] was “do not affect” and the “effect on relative difference between Aβ 1–40, Aβ 1–42 and the longer Aβ products” value [5] was “does not affect”.

With “Aβ 1–38: synthetic Aβ 1-x standard prepared by solid phase synthesis” the “effect on the rate of AICD production” value [5] was “do not affect”.

With “Aβ 1–44: synthetic Aβ 1-x standard prepared by solid phase synthesis” the “effect on the rate of AICD production” value [5] was “do not affect”.

With APP C99-3×FLAG (domain or fragment) the Y-axis intercept of the pre-steady-state burst in AICD production (3.0 µM C99, CHAPSO enriched γ-secretase membranes 0.25 mg/ml) [10] was 8.2 nM and the Kd [11] was 33 nM.
